Measured values as given in patent publication US11471506B2, “VIP antagonists and uses in treating cancer” (Emory University, priority 2018, dated 2022).
Entries after “also recorded” stand apart in the source; their conditions may differ. Ends that are not written are not given here.

Legend:
[1] = in vitro stability of the peptide on the nanoparticle; type: physicochemical; conditions: nanoparticle-conjugated peptide
[2] = system: T cells; assay: in vitro T cell proliferation in response to stimulation with anti-CD3 antibodies, with or without exogenous VIP; type: cell-based; conditions: for reversal / block of the suppressive effect of exogenous VIP on T cell proliferation: exogenous VIP peptide added
Method: Whether VIPhyb treatment would enhance T cell activation and cytotoxicity in response to melanoma, which can be highly immunogenic, was tested.
The anticancer activity of treatment with VIPhyb appears to be T cell mediated.

[3] = system: luciferase expressing splenocytes from B6 mice; assay: splenocyte co-culture with irradiated B16F1 and B16F10 cells, proliferation by BLI; type: cell-based, mouse; conditions: co-culture with irradiated B16 cells, anti-CD3 pre-coated plates, low-dose IL-2, 3 days
Method: Splenocytes isolated from 3 naïve luciferase+ B6 mouse were cultured with irradiated B16 cells and with or without VIPhyb in triplicate, and proliferation measured with BLI.
Whether combination of a VIPhyb with a PD-1 inhibitor could enhance an adaptive immune response to the more aggressive B16F10 model in vitro was investigated. Therefore, irradiated B16F1 and B16F10 cells were co-cultured with luciferase expressing splenocytes from B6 mice. Cells were placed in 96-well plates pre-coated with anti-CD3 antibody and low-dose recombinant murine IL-2 for 3 days and assessed proliferation by BLI.

[4] = system: B16F10 cells; assay: B16F10 melanoma model in B6 Albino mice, VIPhyb and/or anti-PD-1 antibody; type: in vivo, mouse; conditions: VIPhyb 10 μg s.c. daily for 10 days, PD-1 antibody 200 μg i.p. every 3 days, three doses, versus untreated
Method: Tumor volumes were calculated as […].
B16F10 cells were injected into B6 Albino mice. VIPhyb (10 μg) was administered subcutaneously every day for 10 days. Three doses of 200 μg of an PD-1 antibody was intraperitoneally administered every 3 days. A combination both VIPhyb and the PD-1 antibody were also administered.

[5] = system: B16F1 cells; assay: B16F1 melanoma syngeneic model in B6 Albino mice, VIPhyb alone; type: in vivo, mouse
Method: To investigate VIPhyb as an immunotherapy for melanoma, and to determine the best route of administration, Luciferase-expression B16F1 cells were injected into B6 Albino syngeneic recipients and given 10 μg of VIPhyb peritumorally or subcutaneously on the contralateral flank beginning 1 day before tumor inoculation and continuing daily until the experimental endpoint.
Whether VIPhyb has an effect on adaptive immunity was testes. Mice with tumors that exceeded 500 mm^3 in volume were euthanized and their splenocytes phenotyped using flow cytometry. Blood was also collected for a complete blood count (CBC) to determine amount of peripheral white blood cells (WBCs). Of particular interest was the expansion of CD8+ T cells to corroborate the in vitro data, and expression of the inhibitory molecule PD-1.

[6] = system: KPC luc pancreatic cancer cells; assay: MTT assay of viable KPC luc cells after VIPhyb; type: cell-based, murine; conditions: 0, 0.5, 1, 3 and 5 uM VIPhyb, 24 hours
Method: KPC luc pancreatic cancer cells were cultured in a 96 well plate for 24 hours with different concentrations of VIPhyb (0, 0.5, 1, 3 and 5 uM). Number of viable cells after 24 hours were quantified via MTT assay.

[7] = system: melanoma; assay: direct effect of VIPhyb on melanoma cells; type: cell-based; conditions: melanoma expressing VPAC2

| Substance | stabilization of the peptide in vitro [1] | in vitro T cell proliferation in response to stimulation with anti-CD3 antibodies [2] | reversal / block of the suppressive effect of exogenous VIP on T cell proliferation [2] | potency of the nanoparticle formulation ([2]; nanoparticle formulation versus free peptide) | splenocyte / T cell proliferation [3] | tumor volume / tumor growth [4] | survival ([5]; B16F1, 10 μg VIPhyb daily) | tumor volume / tumor growth ([5]; B16F1, 10 μg VIPhyb daily, digital calipers twice weekly, versus untreated) | overall tumor burden by bioluminescent imaging ([5]; B16F1, once weekly BLI) | peripheral WBCs ([5]; peripheral blood, complete blood count) | tumor burden between the two routes of administration ([5]; peritumorally versus subcutaneously on the contralateral flank) | B cells ([5]; spleen upon euthanasia) | NK cells ([5]; spleen upon euthanasia) | dendritic cell subtypes ([5]; spleen upon euthanasia) | CD4+ T cells ([5]; spleen upon euthanasia, flow cytometry) | CD8+ T cells ([5]; spleen upon euthanasia, flow cytometry, versus PBS/saline-treated controls) | frequency of IFNγ, TNF, Granzyme B, and IL-2-producing cells in the CD4+ and CD8+ compartments ([5]; spleen, intracellular cytokine staining, versus PBS treated controls) | frequency of CD4+ and CD8+ T cells expressing PD-1, CTLA-4, and Lag-3 ([5]; spleen, versus PBS treated controls) | number of viable cells (direct killing) [6] | direct effect on melanoma growth, invasiveness, and modulation of inhibitory surface molecules [7] |
| --- | --- | --- | --- | --- | --- | --- | --- | --- | --- | --- | --- | --- | --- | --- | --- | --- | --- | --- | --- | --- |
| VIPhyb-NP: VIPhyb with C-terminal GGGGSC linker (SEQ ID NO: 3) conjugated to a 30 nm Pluronic-stabilized polypropylene sulfide nanoparticle (KPRRPYTDNYTRLRKQMAVKKYLNSILNGGGGSC; also: conjugated to 30 nm Pluronic-stabilized polypropylene sulfide nanoparticle) | stabilize the peptide in vitro | conserved | able to block the effects of exogenous VIP at higher concentrations | increased potency |  |  |  |  |  |  |  |  |  |  |  |  |  |  |  |  |
| KPRRPYTDNYTRLRKQMAVKKYLNSILN [VIPhyb, hybrid peptide of neurotensin (6-11) and VIP (7-28); antagonist of VIP signalling] |  | dose-dependent enhancement | reversal of the suppressive effect of exogenous VIP peptide; also recorded: reversed exogenous VIP mediated splenic T cell suppression |  | not enough to promote expansion of splenocytes; also recorded: lack of splenocyte proliferation | lower average tumor volume | no significant difference | no significant change; also recorded: did not have a significant effect; also recorded: does not affect tumor size | no tumor reduction | nonsignificant modest increase | no difference in tumor burden | nonsignificant increase | nonsignificant increase | nonsignificant increase | nonsignificant modest increase | significantly more; also recorded: Increased CD8+ T cell Proliferation; also recorded: more effector CD8+ T cells; also recorded: bolsters CD8+ proliferation | no significant difference | no significant difference | does not directly kill | absence of a direct effect |
